Where two headings read alike, the source gives them in different places.
Legend:
[1] = one individual; 220 mg every day
[2] = three individuals; 660 mg at first noticeable symptom, then 440 mg three times daily at six-hour intervals
Method: After completing treatment in Example 1, three of the individuals at risk for hemorrhoids were treated at the onset of hemorrhoid symptoms to determine whether naproxen could halt or reverse the progression of the hemorrhoid symptoms.

With COc1ccc2cc([C@H](C)C(=O)O)ccc2c1 [naproxen sodium] the “occurrence of emerging hemorrhoid symptoms under prophylaxis” value [1] was “has not experienced any emerging hemorrhoid symptoms”, the “progression of emerging hemorrhoid symptoms” value [2] was “symptoms did not worsen” and the “time to complete disappearance of all symptoms of hemorrhoids from commencement of treatment” value [2] was 12 to 24 h. For the same molecule, the “hemorrhoid symptoms after treatment, as reported by individuals” value (440 mg three times daily at six-hour intervals, the one remaining individual) was “significant improvement in symptoms” and the “hemorrhoid symptoms after treatment, as reported by individuals” value (five individuals, 440 mg three times daily at six-hour intervals until symptoms abated, all treated individuals except one) was “complete lack of hemorrhoid symptoms after treatment”.

— patent US20140350111A1, “METHODS FOR TREATMENT AND PROPHYLAXIS AGAINST HEMORRHOIDS” (priority 2011, published 2014)
